ChEMBL document CHEMBL5291721, “A preclinical secondary pharmacology resource illuminates target-adverse drug reaction associations of marketed drugs” (Nat Commun, 2023)

Key:
[1] = molecular target: T1, Alpha-2C adrenergic receptor (Homo sapiens, UniProt P18825); format: functional
T1 sequence (P18825 whole entry): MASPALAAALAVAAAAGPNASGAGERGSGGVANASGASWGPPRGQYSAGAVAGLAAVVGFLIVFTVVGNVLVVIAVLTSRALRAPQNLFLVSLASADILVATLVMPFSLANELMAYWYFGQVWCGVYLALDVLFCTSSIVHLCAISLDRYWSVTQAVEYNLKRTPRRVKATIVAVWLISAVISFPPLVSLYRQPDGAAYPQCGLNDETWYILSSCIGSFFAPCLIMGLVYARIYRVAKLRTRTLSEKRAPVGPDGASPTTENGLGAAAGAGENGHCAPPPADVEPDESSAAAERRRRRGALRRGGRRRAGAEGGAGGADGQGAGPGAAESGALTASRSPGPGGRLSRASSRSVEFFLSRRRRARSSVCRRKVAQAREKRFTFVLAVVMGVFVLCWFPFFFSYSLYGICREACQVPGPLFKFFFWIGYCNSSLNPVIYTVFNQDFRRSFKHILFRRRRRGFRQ

[2] = molecular target: T2, Muscarinic acetylcholine receptor M2 (Homo sapiens, UniProt P08172); format: functional, cell-based
T2 sequence (P08172 whole entry): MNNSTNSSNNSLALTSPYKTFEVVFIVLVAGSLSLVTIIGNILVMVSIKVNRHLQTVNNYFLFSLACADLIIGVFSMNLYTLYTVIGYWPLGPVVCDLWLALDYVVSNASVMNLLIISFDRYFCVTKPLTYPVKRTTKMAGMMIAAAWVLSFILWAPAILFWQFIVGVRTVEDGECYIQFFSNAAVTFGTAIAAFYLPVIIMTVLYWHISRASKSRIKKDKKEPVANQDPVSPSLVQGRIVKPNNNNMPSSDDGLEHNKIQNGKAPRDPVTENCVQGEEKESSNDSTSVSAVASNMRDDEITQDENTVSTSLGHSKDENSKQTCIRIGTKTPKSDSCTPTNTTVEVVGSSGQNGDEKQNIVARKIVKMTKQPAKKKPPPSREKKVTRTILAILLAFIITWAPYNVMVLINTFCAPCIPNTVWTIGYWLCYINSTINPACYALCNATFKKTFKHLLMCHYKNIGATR

[3] = molecular target: Beta-1 adrenergic receptor (Homo sapiens, UniProt P08588); format: functional
Sequence of Beta-1 adrenergic receptor (P08588 whole entry): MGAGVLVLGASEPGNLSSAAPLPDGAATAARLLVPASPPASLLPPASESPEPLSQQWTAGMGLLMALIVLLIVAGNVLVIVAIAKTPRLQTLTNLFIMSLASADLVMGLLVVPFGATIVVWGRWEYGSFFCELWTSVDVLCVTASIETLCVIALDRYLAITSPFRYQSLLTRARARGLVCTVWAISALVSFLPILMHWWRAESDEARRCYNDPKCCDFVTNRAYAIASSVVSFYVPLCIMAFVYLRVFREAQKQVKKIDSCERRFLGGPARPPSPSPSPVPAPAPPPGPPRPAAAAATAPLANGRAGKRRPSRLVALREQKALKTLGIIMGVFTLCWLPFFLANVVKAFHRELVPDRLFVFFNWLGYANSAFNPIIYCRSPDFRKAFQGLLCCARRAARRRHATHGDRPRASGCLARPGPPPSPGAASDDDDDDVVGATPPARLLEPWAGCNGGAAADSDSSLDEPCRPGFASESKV

[4] = molecular target: cGMP-inhibited 3',5'-cyclic phosphodiesterase 3A (Homo sapiens, UniProt Q14432); format: functional
Sequence of cGMP-inhibited 3',5'-cyclic phosphodiesterase 3A (Q14432 whole entry): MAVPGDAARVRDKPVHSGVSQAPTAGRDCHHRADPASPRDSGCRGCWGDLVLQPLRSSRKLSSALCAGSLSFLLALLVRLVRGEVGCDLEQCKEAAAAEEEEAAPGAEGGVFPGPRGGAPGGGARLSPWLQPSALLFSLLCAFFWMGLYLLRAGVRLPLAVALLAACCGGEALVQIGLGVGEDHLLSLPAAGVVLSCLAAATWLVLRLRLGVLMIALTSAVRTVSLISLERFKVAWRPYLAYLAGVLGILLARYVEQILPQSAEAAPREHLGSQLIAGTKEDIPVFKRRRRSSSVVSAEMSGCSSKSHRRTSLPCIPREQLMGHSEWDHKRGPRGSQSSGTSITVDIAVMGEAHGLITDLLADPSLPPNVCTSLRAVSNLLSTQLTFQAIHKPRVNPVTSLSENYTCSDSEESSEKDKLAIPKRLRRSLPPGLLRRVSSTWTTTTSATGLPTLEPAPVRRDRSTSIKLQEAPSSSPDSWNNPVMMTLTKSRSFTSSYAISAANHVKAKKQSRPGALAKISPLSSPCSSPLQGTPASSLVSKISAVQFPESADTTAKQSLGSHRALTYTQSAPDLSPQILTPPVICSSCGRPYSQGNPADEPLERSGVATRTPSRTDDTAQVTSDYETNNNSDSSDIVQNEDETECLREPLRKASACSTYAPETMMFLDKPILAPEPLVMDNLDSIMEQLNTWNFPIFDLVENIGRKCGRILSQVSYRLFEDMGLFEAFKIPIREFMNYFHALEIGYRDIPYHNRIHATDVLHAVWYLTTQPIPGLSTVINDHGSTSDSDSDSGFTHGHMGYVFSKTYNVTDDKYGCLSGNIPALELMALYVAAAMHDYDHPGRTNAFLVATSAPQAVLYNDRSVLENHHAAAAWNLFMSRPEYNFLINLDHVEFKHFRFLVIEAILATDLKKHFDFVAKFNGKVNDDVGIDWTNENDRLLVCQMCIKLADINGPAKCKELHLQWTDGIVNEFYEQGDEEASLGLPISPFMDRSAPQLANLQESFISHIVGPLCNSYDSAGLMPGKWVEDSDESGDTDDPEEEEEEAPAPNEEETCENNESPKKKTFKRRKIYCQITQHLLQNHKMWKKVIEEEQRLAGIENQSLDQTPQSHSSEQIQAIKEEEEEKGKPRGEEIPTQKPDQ

[5] = molecular target: T3, 5-hydroxytryptamine receptor 2B (Homo sapiens, UniProt P41595); format: functional, cell-based
[6] = molecular target: T3, 5-hydroxytryptamine receptor 2B; format: functional, cell-based; remark: listed apart in the source
[7] = molecular target: T4, Neuropeptide Y receptor type 1 (Homo sapiens, UniProt P25929)
T4 sequence (P25929 whole entry): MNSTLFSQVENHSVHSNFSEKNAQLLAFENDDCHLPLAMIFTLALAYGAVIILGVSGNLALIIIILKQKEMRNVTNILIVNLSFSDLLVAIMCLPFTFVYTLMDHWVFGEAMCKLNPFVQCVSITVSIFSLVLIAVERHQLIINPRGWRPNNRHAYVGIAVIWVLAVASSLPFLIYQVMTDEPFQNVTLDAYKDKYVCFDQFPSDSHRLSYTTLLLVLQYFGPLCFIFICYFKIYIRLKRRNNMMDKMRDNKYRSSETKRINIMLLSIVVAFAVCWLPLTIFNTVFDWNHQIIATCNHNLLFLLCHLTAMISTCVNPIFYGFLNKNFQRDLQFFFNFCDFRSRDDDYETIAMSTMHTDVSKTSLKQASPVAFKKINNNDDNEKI

[8] = molecular target: T2, Muscarinic acetylcholine receptor M2; format: functional, cell-based; remark: listed apart in the source
[9] = molecular target: Voltage-dependent L-type calcium channel subunit alpha-1C (Rattus norvegicus, UniProt P22002); format: functional
Sequence of Voltage-dependent L-type calcium channel subunit alpha-1C (P22002 whole entry): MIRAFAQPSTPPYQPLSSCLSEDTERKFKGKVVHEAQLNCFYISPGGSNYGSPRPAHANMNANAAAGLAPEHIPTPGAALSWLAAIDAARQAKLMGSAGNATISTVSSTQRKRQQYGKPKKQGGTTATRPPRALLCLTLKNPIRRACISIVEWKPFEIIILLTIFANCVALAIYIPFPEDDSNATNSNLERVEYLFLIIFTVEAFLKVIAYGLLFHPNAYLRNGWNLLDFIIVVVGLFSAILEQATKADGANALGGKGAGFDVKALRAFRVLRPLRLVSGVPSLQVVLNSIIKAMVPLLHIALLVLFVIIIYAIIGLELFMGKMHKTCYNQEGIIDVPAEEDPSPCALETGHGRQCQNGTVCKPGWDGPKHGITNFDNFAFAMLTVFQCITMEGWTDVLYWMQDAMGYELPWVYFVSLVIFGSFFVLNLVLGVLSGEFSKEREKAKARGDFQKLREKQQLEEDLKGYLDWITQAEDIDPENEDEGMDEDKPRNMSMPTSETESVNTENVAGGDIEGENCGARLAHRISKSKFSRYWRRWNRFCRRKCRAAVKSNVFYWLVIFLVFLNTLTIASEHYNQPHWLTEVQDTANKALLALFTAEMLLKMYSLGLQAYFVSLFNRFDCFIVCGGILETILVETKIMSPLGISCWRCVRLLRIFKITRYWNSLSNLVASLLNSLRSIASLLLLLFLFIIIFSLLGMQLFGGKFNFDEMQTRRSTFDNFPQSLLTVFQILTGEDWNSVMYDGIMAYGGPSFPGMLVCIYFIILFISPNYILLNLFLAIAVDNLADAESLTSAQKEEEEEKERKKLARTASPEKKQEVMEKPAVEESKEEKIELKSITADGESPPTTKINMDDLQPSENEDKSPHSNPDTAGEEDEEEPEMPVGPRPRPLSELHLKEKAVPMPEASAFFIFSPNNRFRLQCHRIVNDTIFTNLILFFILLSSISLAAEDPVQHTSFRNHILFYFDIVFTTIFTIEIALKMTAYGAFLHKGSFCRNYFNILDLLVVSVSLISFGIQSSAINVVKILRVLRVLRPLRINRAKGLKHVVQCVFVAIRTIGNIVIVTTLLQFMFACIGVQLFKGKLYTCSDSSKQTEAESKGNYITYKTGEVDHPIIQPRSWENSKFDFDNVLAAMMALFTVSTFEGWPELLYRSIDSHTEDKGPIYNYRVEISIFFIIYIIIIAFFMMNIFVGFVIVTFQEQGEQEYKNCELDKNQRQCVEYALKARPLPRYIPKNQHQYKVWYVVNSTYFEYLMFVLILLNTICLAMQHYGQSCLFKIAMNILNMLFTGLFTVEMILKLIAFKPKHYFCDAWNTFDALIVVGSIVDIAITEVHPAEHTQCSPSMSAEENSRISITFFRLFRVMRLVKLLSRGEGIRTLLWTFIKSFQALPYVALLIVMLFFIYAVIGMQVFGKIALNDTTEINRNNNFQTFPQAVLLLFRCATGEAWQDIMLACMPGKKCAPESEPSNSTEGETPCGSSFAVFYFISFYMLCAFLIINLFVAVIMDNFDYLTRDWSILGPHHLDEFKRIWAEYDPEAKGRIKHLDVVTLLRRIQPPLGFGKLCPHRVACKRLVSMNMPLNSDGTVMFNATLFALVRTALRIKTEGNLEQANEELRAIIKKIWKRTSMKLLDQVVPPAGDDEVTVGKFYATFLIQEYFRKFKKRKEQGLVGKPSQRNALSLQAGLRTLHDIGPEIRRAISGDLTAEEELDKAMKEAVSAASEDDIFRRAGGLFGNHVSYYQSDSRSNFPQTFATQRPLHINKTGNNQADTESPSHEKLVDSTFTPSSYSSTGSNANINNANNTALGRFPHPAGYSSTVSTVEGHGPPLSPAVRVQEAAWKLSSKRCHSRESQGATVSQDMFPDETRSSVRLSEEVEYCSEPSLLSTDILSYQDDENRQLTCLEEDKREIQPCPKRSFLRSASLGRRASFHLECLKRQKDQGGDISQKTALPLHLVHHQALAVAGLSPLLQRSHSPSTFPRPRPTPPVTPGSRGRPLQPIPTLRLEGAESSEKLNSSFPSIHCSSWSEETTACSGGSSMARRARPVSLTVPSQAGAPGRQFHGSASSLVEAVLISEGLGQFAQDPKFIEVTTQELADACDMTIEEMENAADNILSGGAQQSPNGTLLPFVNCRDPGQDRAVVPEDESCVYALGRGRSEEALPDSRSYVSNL

Adenosine receptor A2a = Adenosine receptor A2a (Homo sapiens, UniProt P29274)
Vasopressin V2 receptor = Vasopressin V2 receptor (Homo sapiens, UniProt P30518)
Sequence of Vasopressin V2 receptor (P30518 whole entry): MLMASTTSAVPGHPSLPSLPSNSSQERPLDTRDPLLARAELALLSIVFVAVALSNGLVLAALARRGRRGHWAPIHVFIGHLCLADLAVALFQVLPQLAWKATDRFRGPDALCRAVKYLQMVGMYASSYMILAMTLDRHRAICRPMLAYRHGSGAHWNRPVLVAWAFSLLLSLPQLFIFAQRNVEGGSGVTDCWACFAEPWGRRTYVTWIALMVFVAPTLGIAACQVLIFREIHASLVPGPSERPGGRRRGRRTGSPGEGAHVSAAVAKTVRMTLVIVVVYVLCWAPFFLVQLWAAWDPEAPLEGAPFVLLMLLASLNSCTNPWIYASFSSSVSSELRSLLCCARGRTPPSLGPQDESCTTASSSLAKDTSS

[10] = molecular target: Sodium-dependent noradrenaline transporter (Homo sapiens, UniProt P23975)
Histamine H2 receptor = Histamine H2 receptor (Homo sapiens, UniProt P25021); format: functional, cell-based
Sequence of Histamine H2 receptor (P25021 whole entry): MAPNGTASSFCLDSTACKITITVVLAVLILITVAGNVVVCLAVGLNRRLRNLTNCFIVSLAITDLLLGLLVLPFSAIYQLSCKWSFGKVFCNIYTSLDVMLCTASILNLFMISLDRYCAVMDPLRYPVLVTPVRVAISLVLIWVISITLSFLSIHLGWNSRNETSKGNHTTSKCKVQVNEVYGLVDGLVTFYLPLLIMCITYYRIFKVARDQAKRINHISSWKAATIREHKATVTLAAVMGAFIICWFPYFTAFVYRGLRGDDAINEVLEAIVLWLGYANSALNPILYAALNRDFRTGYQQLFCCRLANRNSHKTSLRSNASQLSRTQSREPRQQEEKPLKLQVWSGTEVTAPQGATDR

[11] = molecular target: T5, Alpha-2A adrenergic receptor (Homo sapiens, UniProt P08913); format: functional, cell-based
T5 sequence (P08913 whole entry): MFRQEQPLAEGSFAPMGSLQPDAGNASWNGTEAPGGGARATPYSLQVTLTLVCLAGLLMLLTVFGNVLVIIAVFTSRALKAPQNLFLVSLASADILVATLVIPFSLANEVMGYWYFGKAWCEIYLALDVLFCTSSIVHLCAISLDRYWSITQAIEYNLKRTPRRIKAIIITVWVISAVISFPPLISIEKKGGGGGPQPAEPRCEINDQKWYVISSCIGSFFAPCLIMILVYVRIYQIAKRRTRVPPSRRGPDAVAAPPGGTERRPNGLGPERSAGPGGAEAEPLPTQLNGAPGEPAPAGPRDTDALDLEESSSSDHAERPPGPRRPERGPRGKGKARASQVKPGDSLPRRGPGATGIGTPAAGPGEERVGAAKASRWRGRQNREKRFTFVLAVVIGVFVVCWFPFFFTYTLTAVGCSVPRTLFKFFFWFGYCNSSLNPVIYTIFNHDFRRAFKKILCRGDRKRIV

D(3) dopamine receptor = D(3) dopamine receptor (Homo sapiens, UniProt P35462)
Sequence of D(3) dopamine receptor (P35462 whole entry): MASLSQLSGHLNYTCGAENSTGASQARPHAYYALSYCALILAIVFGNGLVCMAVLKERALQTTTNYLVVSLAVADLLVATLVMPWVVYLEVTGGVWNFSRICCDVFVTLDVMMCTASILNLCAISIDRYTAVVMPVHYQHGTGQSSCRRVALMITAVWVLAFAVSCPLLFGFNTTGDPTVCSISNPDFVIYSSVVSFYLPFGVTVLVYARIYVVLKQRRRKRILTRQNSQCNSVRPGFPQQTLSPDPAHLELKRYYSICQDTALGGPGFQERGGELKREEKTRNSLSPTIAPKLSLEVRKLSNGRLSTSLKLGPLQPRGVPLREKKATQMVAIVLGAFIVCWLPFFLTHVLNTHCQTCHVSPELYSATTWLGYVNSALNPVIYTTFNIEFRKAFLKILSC

[12] = molecular target: T6, Type-1 angiotensin II receptor (Homo sapiens, UniProt P30556)
T6 sequence (P30556 whole entry): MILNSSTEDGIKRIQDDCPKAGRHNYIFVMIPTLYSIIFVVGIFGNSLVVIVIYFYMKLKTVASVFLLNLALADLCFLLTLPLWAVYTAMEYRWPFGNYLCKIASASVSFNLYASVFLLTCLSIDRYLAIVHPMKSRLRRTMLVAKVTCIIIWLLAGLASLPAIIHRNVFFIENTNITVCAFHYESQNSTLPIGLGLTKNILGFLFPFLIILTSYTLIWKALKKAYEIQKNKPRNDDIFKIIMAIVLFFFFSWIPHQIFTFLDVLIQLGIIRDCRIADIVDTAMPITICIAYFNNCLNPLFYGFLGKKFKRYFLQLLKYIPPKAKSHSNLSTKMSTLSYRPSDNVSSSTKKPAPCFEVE
Note: assay procedure not described here.

| AC50 [1] | AC50 [2] | AC50 [3] | AC50 [4] | AC50 [5] | AC50 [6] | AC50 [7] | AC50 [8] | AC50 [9] | AC50 (Adenosine receptor A2a) | AC50 (Vasopressin V2 receptor) | AC50 [10] | AC50 (Histamine H2 receptor) | AC50 [11] | AC50 (D(3) dopamine receptor) | AC50 [12] | Structure (SMILES) |
| --- | --- | --- | --- | --- | --- | --- | --- | --- | --- | --- | --- | --- | --- | --- | --- | --- |
| > 30 µM | > 30 µM | > 30 µM | > 30 µM | > 30 µM | > 30 µM | > 30 µM | > 30 µM | > 30 µM | 33.1 µM | 36.9 µM | > 30 µM | > 30 µM | > 30 µM | > 30 µM | 27.6 µM | O=C(O)CCNC(=O)c1ccc(/N=N/c2ccc(O)c(C(=O)O)c2)cc1 [BALSALAZIDE] |
| > 10 µM | > 10 µM | > 10 µM | > 30 µM | > 10 µM | > 10 µM | > 10 µM | > 10 µM | > 10 µM | > 10 µM | > 10 µM | > 10 µM | > 10 µM | > 10 µM | > 30 µM | > 10 µM | O=C(O)c1ccc(NC(=O)[C@H](Cc2ccc(O)cc2)NC(=O)c2ccccc2)cc1 [BENTIROMIDE] |
| 1.5 µM | > 10 µM | > 10 µM | > 30 µM | > 10 µM | > 10 µM | > 10 µM | > 10 µM | > 10 µM | > 10 µM | > 10 µM | > 10 µM | > 30 µM | > 10 µM | > 30 µM | > 10 µM | NS(=O)(=O)c1cc2c(cc1Cl)N=C(CSCc1ccccc1)NS2(=O)=O [BENZTHIAZIDE] |
| > 30 µM | > 30 µM | > 30 µM | > 30 µM | > 30 µM | > 30 µM | > 30 µM | > 30 µM | 17 µM | > 30 µM | > 30 µM | > 30 µM | > 30 µM | > 30 µM | > 30 µM | 30 µM | Clc1ccc(CCC(Cn2ccnc2)Sc2c(Cl)cccc2Cl)cc1 (configuration not stated) [BUTOCONAZOLE] |
| > 10 µM | > 10 µM | > 30 µM | > 30 µM | > 10 µM | > 10 µM | > 30 µM | > 10 µM | > 10 µM | > 30 µM | > 30 µM | > 30 µM | > 10 µM | > 10 µM | > 30 µM | > 30 µM | CC(CN(C)C)C(C)(O)Cc1ccc(Cl)cc1 (configuration not stated) [CLOBUTINOL] |
| > 10 µM | > 10 µM | > 10 µM | > 30 µM | > 10 µM | > 10 µM | > 30 µM | > 10 µM | > 10 µM | > 30 µM | > 30 µM | > 30 µM | > 10 µM | > 10 µM | > 30 µM | > 30 µM | CCOC(=O)C(C)(C)Oc1ccc(Cl)cc1 [CLOFIBRATE] |
| > 30 µM | > 10 µM | > 30 µM | > 30 µM | > 10 µM | > 10 µM | > 30 µM | > 10 µM | > 10 µM | > 30 µM | > 30 µM | > 30 µM | > 30 µM | > 10 µM | > 30 µM | > 30 µM | C[C@@H]1C[C@H]2[C@@H]3CCC4=CC(=O)C=C[C@]4(C)[C@@]3(F)[C@@H](O)C[C@]2(C)[C@@]1(O)C(=O)CO [DEXAMETHASONE] |
| > 10 µM | > 10 µM | > 10 µM | > 30 µM | > 10 µM | > 10 µM | > 10 µM | > 10 µM | > 10 µM | > 10 µM | > 10 µM | > 10 µM | > 10 µM | > 10 µM | > 30 µM | > 10 µM | CC(C)[C@@H](C)/C=C/[C@@H](C)[C@H]1CC[C@H]2/C(=C/C=C3\C[C@@H](O)CC[C@@H]3C)CCC[C@]12C [DIHYDROTACHYSTEROL] |
| 1.2 µM | > 30 µM | > 30 µM | > 30 µM | > 30 µM | > 30 µM | > 30 µM | > 30 µM | > 30 µM | > 30 µM | > 30 µM | 0.4 µM | > 30 µM | > 30 µM | 0.16 µM | > 30 µM | Oc1ccc(CCNCCCCCCNCCc2ccccc2)cc1O [DOPEXAMINE] |
| > 30 µM | > 30 µM | > 30 µM | > 30 µM | > 30 µM | > 30 µM | > 30 µM | > 30 µM | > 30 µM | > 30 µM | > 30 µM | > 30 µM | > 30 µM | > 30 µM | > 30 µM | > 30 µM | CCN1CC(CCN2CCOCC2)C(c2ccccc2)(c2ccccc2)C1=O (configuration not stated) [DOXAPRAM] |
| 8.4 µM | > 10 µM | > 10 µM | > 10 µM | > 10 µM | > 10 µM | > 30 µM | > 10 µM | > 10 µM | > 30 µM | > 30 µM | 2.3 µM | > 10 µM | > 10 µM | > 10 µM | > 30 µM | CCCCOc1ccc(C(=O)CCN2CCCCC2)cc1 [DYCLONINE] |

| Structure (SMILES) | AC50 [1] | AC50 [2] | AC50 [3] | AC50 [4] | AC50 [5] | AC50 [6] | AC50 [7] | AC50 [8] | AC50 [9] | AC50 (Adenosine receptor A2a) | AC50 (Vasopressin V2 receptor) | AC50 [10] | AC50 (Histamine H2 receptor) | AC50 [11] | AC50 (D(3) dopamine receptor) | AC50 [12] |
| --- | --- | --- | --- | --- | --- | --- | --- | --- | --- | --- | --- | --- | --- | --- | --- | --- |
| Cc1cc(=O)n(-c2ccccc2)n1C [ANTIPYRINE] | > 10 µM | > 10 µM | > 10 µM | > 30 µM | > 10 µM | > 10 µM | > 30 µM | > 10 µM | > 10 µM | > 30 µM | > 30 µM | > 30 µM | > 10 µM | > 10 µM | > 10 µM | > 30 µM |
